Data published in US11795204B2 (Zealand Pharma A/S, priority 2012, dated 2023).
Square brackets hold non-standard residues; d marks the D form. Peptide text beside a SMILES is read from it. Dab = NCC[C@H](N)C(=O)O; Aib = CC(C)(N)C(=O)O

Tests used:
human Glucagon-R = biological target: T1, human Glucagon-R (Homo sapiens, UniProt P47871); assay: Glucagon receptor assay (cAMP induction, AlphaScreen); type: cell-based; details: HEK293 cells expressing the human Glucagon-R, 15 min at 37° C., read-out: GCG-R EC50 in vitro
T1 construct: expressed in transfected cells
T1 sequence (P47871 26-477): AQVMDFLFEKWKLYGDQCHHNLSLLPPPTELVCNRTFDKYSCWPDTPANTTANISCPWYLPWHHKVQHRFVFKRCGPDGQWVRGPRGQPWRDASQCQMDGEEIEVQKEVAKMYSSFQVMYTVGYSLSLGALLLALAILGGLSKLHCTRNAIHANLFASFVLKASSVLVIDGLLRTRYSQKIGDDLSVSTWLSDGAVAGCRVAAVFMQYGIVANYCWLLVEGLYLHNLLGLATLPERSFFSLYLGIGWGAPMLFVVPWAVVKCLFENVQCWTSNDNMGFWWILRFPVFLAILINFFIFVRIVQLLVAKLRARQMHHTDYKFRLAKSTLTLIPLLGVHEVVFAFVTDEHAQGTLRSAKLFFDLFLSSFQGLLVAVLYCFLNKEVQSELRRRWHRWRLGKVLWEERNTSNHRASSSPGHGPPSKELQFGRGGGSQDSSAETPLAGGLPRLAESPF
Procedure: The 5′-end primers additionally encoded a near-Kozak consensus sequence to ensure efficient translation. […] 48 hr after transfection, cells were seeded for limited dilution cloning and selected with 1 mg/ml G418 in the culture medium.
On the day of analysis, growth medium was removed and the cells were washed once with […] of the included Assay buffer with IBMX. Cells were incubated in […] Assay buffer/IBMX containing increasing concentrations of test peptides for 15 min at 37° C. Then the peptides/Assay buffer was removed and cells were lysed by addition of […] Lysis buffer pr. well and incubation for at least 10 min at room temperature. From each well […] cell lysate was transferred to a 384-well OptiPlate and mixed with Donor and Acceptor beads and incubated for 1 h at room temperature. The cAMP content was measured on an Envision plate reader.

physchem = details: pH 7.5
Procedure: A stock solution of the test peptide (2 mg/ml; determined by measurement of the absorption of the solution at 280 nm, and using the theoretical extension coefficient based on the content of tryptophan and tyrosine in the peptide) in demineralized water adjusted to pH 2.5 with HCl was prepared, and aliquots were diluted 1:1 in 100 mM acetate buffer (pH 4.0) and 100 mM phosphate buffer (pH 7.5), respectively, and loaded in a standard flat-bottom, non-sterile 96-well UV Microplate. The absorbance of samples (single samples, n=1) at 280 and 325 nm was measured in an absorbance-based plate reader, which was preheated to ambient temperature.

[1] = Chemical stability assessment (RP-HPLC normalized purity); type: physicochemical; details: for Normalized purity pH 4.0 after 14 days: 1 mg/ml in 50 mM acetate buffer pH 4.0, 40° C.; for Normalized purity pH 7.5 after 14 days: 1 mg/ml in 50 mM phosphate buffer pH 7.5, 40° C.
Procedure: Samples were placed in glass vials and incubated at 40° C. The samples were analysed by reverse-phase HPLC on a C18 column with gradient elution using an acetonitrile/trifluoroacetic acid/water eluent system. The area-percentage (area-%) of the main peak after incubation time T=t (relative to time T=0) was detected by UV spectrometry at 220 nm. The purity was first determined as follows: Purity(area-%)=(area of main peak/total area of all peaks)×100. […] Normalized purity values in Table 2 were determined after 14 days of incubation.

Compound	EC50 (human Glucagon-R) [nM]	solubility (physchem) [µg/mL]	Normalized purity pH 4.0 after 14 days [1] [%]	Normalized purity pH 7.5 after 14 days [1] [%]
CC(C)C[C@H](NC(=O)[C@H](Cc1c[nH]c2ccccc12)NC(=O)[C@H](CCCCN)NC(=O)[C@@H](NC(=O)[C@H](Cc1ccccc1)NC(=O)[C@H](CO)NC(=O)[C@H](CCC(=O)O)NC(=O)[C@H](C)NC(=O)[C@H](CCCNC(=N)N)NC(=O)[C@H](CCCNC(=N)N)NC(=O)C(C)(C)NC(=O)[C@H](CC(=O)O)NC(=O)[C@H](CC(C)C)NC(=O)[C@H](Cc1ccc(O)cc1)NC(=O)[C@H](CCCCN)NC(=O)[C@H](CO)NC(=O)[C@H](Cc1ccc(O)cc1)NC(=O)[C@H](CC(=O)O)NC(=O)[C@H](CO)NC(=O)[C@@H](NC(=O)[C@H](Cc1ccccc1)NC(=O)[C@@H](NC(=O)CNC(=O)[C@H](CCC(N)=O)NC(=O)[C@H](CO)NC(=O)[C@@H](N)Cc1c[nH]cn1)[C@@H](C)O)[C@@H](C)O)C(C)C)C(=O)N[C@@H](CCC(=O)O)C(=O)N[C@@H](CO)C(=O)N[C@H](C(=O)O)[C@@H](C)O [Compound 25] (H-HSQGTFTSDYSKYLD[Aib]RRAESFVKWLEST-OH)	0.0066	≥ 1000	93.8	89.8
CC(C)C[C@H](NC(=O)[C@H](Cc1c[nH]c2ccccc12)NC(=O)[C@H](CCC(=O)O)NC(=O)[C@@H](NC(=O)[C@H](Cc1ccccc1)NC(=O)[C@H](CO)NC(=O)[C@H](CCCCN)NC(=O)[C@H](C)NC(=O)[C@H](CCCNC(=N)N)NC(=O)[C@H](C)NC(=O)C(C)(C)NC(=O)[C@H](CC(=O)O)NC(=O)[C@H](CC(C)C)NC(=O)[C@H](Cc1ccc(O)cc1)NC(=O)[C@H](CCCCN)NC(=O)[C@H](CO)NC(=O)[C@H](Cc1ccc(O)cc1)NC(=O)[C@H](CC(=O)O)NC(=O)[C@H](CO)NC(=O)[C@@H](NC(=O)[C@H](Cc1ccccc1)NC(=O)[C@@H](NC(=O)CNC(=O)[C@H](CCC(N)=O)NC(=O)[C@H](CO)NC(=O)[C@@H](N)Cc1c[nH]cn1)[C@@H](C)O)[C@@H](C)O)C(C)C)C(=O)N[C@@H](CCC(=O)O)C(=O)N[C@@H](CCCCN)C(=O)N[C@H](C(=O)O)[C@@H](C)O [Compound 29] (H-HSQGTFTSDYSKYLD[Aib]ARAKSFVEWLEKT-OH)	0.023	≥ 1000	91	91.6
CC(=O)NCC[C@H](NC(=O)[C@H](CO)NC(=O)[C@@H](N)Cc1c[nH]cn1)C(=O)NCC(=O)N[C@H](C(=O)N[C@@H](Cc1ccccc1)C(=O)N[C@H](C(=O)N[C@@H](CO)C(=O)N[C@@H](CC(=O)O)C(=O)N[C@@H](Cc1ccc(O)cc1)C(=O)N[C@@H](CO)C(=O)N[C@@H](CCCCN)C(=O)N[C@@H](Cc1ccc(O)cc1)C(=O)N[C@@H](CC(C)C)C(=O)N[C@@H](CC(=O)O)C(=O)NC(C)(C)C(=O)N[C@@H](C)C(=O)N[C@@H](CCCNC(=N)N)C(=O)N[C@@H](C)C(=O)N[C@@H](CCC(=O)O)C(=O)N[C@@H](CCC(=O)O)C(=O)N[C@@H](Cc1ccccc1)C(=O)N[C@H](C(=O)N[C@@H](CCCCN)C(=O)N[C@@H](Cc1c[nH]c2ccccc12)C(=O)N[C@@H](CC(C)C)C(=O)N[C@@H](CCC(=O)O)C(=O)N[C@@H](CO)C(=O)N[C@H](C(=O)O)[C@@H](C)O)C(C)C)[C@@H](C)O)[C@@H](C)O [Compound 39] (H-HS[Dab](Ac)GTFTSDYSKYLD[Aib]ARAEEFVKWLEST-OH)	0.0044	≥ 1000	–	–
CC(C)C[C@H](NC(=O)[C@H](Cc1c[nH]c2ccccc12)NC(=O)[C@H](CCCCN)NC(=O)[C@@H](NC(=O)[C@H](Cc1ccccc1)NC(=O)[C@H](CO)NC(=O)[C@H](CCC(=O)O)NC(=O)[C@H](C)NC(=O)[C@H](CCCNC(=N)N)NC(=O)[C@H](C)NC(=O)C(C)(C)NC(=O)[C@H](CC(=O)O)NC(=O)[C@H](CC(C)C)NC(=O)[C@H](Cc1ccc(O)cc1)NC(=O)[C@H](CCCCN)NC(=O)[C@H](CO)NC(=O)[C@H](Cc1ccc(O)cc1)NC(=O)[C@H](CC(=O)O)NC(=O)[C@H](CO)NC(=O)[C@@H](NC(=O)[C@H](Cc1ccccc1)NC(=O)[C@@H](NC(=O)CNC(=O)[C@H](CCC(N)=O)NC(=O)[C@H](C)NC(=O)[C@@H](N)Cc1c[nH]cn1)[C@@H](C)O)[C@@H](C)O)C(C)C)C(=O)N[C@@H](CCC(=O)O)C(=O)N[C@@H](CO)C(=O)N[C@H](C(=O)O)[C@@H](C)O [Compound 20] (H-HAQGTFTSDYSKYLD[Aib]ARAESFVKWLEST-OH)	0.24	≥ 1000	–	–
CC(C)C[C@H](NC(=O)[C@H](Cc1c[nH]c2ccccc12)NC(=O)[C@H](CO)NC(=O)[C@@H](NC(=O)[C@H](Cc1ccccc1)NC(=O)[C@H](CCC(=O)O)NC(=O)[C@H](CCC(=O)O)NC(=O)[C@H](C)NC(=O)[C@H](CCCNC(=N)N)NC(=O)[C@H](C)NC(=O)C(C)(C)NC(=O)[C@H](CC(=O)O)NC(=O)[C@H](CC(C)C)NC(=O)[C@H](Cc1ccc(O)cc1)NC(=O)[C@H](CCCCN)NC(=O)[C@H](CO)NC(=O)[C@H](Cc1ccc(O)cc1)NC(=O)[C@H](CC(=O)O)NC(=O)[C@H](CO)NC(=O)[C@@H](NC(=O)[C@H](Cc1ccccc1)NC(=O)[C@@H](NC(=O)CNC(=O)[C@H](CCC(N)=O)NC(=O)[C@H](CO)NC(=O)[C@@H](N)Cc1c[nH]cn1)[C@@H](C)O)[C@@H](C)O)C(C)C)C(=O)N[C@@H](CCC(=O)O)C(=O)N[C@@H](CCCCN)C(=O)N[C@H](C(=O)O)[C@@H](C)O [Compound 33] (H-HSQGTFTSDYSKYLD[Aib]ARAEEFVSWLEKT-OH)	0.044	≥ 1000	–	–
H-HSQGTFTSDYSKYLDSARAEEFVKWLEST-OH [Compound 9]	0.03	≥ 1000	–	–
CC(=O)NCC[C@H](NC(=O)[C@H](CO)NC(=O)[C@@H](N)Cc1c[nH]cn1)C(=O)NCC(=O)N[C@H](C(=O)N[C@@H](Cc1ccccc1)C(=O)N[C@H](C(=O)N[C@@H](CO)C(=O)N[C@@H](CC(=O)O)C(=O)N[C@@H](Cc1ccc(O)cc1)C(=O)N[C@@H](CO)C(=O)N[C@@H](CCCCN)C(=O)N[C@@H](Cc1ccc(O)cc1)C(=O)N[C@@H](CC(C)C)C(=O)N[C@@H](CC(=O)O)C(=O)NC(C)(C)C(=O)N[C@@H](C)C(=O)N[C@@H](CCCNC(=N)N)C(=O)N[C@@H](C)C(=O)N[C@@H](CCC(=O)O)C(=O)N[C@@H](CCC(=O)O)C(=O)N[C@@H](Cc1ccccc1)C(=O)N[C@H](C(=O)N[C@@H](CCCCN)C(=O)N[C@@H](Cc1c[nH]c2ccccc12)C(=O)N[C@@H](CC(C)C)C(=O)N[C@@H](CCC(=O)O)C(=O)N[C@@H](CO)C(=O)N[C@H](C(N)=O)[C@@H](C)O)C(C)C)[C@@H](C)O)[C@@H](C)O [Compound 40] (H-HS[Dab](Ac)GTFTSDYSKYLD[Aib]ARAEEFVKWLEST-NH2)	0.0035	≥ 1000	–	–
CC(C)C[C@H](NC(=O)[C@H](Cc1c[nH]c2ccccc12)NC(=O)[C@H](C)NC(=O)[C@@H](NC(=O)[C@H](Cc1ccccc1)NC(=O)[C@H](CCC(=O)O)NC(=O)[C@H](CCC(=O)O)NC(=O)[C@H](C)NC(=O)[C@H](CCCNC(=N)N)NC(=O)[C@H](C)NC(=O)C(C)(C)NC(=O)[C@H](CC(=O)O)NC(=O)[C@H](CC(C)C)NC(=O)[C@H](Cc1ccc(O)cc1)NC(=O)[C@H](CCCCN)NC(=O)[C@H](CO)NC(=O)[C@H](Cc1ccc(O)cc1)NC(=O)[C@H](CC(=O)O)NC(=O)[C@H](CO)NC(=O)[C@@H](NC(=O)[C@H](Cc1ccccc1)NC(=O)[C@@H](NC(=O)CNC(=O)[C@H](CCC(N)=O)NC(=O)[C@H](CO)NC(=O)[C@@H](N)Cc1c[nH]cn1)[C@@H](C)O)[C@@H](C)O)C(C)C)C(=O)N[C@@H](CCC(=O)O)C(=O)N[C@@H](CO)C(=O)N[C@H](C(=O)O)[C@@H](C)O [Compound 35] (H-HSQGTFTSDYSKYLD[Aib]ARAEEFVAWLEST-OH)	0.014	≥ 1000	–	–
